This is an account of results in patent publication US10420745B2 (priority 2015, dated 2019).

One test concerns Clostridia perfringens. The format is cell-based. As to conditions: minimum inhibitory concentration towards Clostridia perfringens, in vitro.
The molecule `CCCC(=O)OCC(O)CO` (stereo not shown) [Glyceryl monobutyrate] yielded an MIC of 125 mmol.

In the case of `CCCC(=O)O` [Butyric acid], the MIC came to 62 mmol.

`CCCCC(=O)O` [Valeric acid] registered an MIC of 15 mmol.

The molecule `CCC(=O)O` [Propionic acid] registered an MIC of 62 mmol.

On to `CCCCC(=O)OCC(O)CO` (stereo not shown) [Glyceryl monovalerate], for which the MIC amounted to 15 mmol.

`CCC(=O)OCC(O)CO` (stereo not shown) [Glyceryl monopropionate] showed an MIC of 250 mmol.

A further test relates to Clostridium perfringens-induced necrotic enteritis. The format is in vivo, broiler chicken. To be noted: Ross 308 broilers, lower concentration in feed (2.5/2/1.5 kg/ton weeks 1/2/3), adsorbed on silica carrier, C. perfringens challenge days 17-20, scoring day 21; positive control 71%.
For `CCCCC(=O)OCC(O)CO` (stereo not shown) [Glyceryl monovalerate], the “animals within the group diagnosed as necrotic enteritis positive (macroscopic lesion score ≥2)” value came out at 27%.
